This passage reports melting point results from patent US20070219234A1, “Thienopyridine Derivatives” (priority 2004, published 2007).

The structures appear in SMILES notation.

With `Cl.Cl.NC(=O)c1sc2nccc(N3CCCNCC3)c2c1N`, the melting point is over 295 °C.

`Cl.Cl.NC(=O)c1sc2nccc(N3CCNCC3)c2c1N`: the melting point lay in the range of 270 to 280 °C.

`NC(=O)c1sc2nccc(N3CC[C@@H]4CCCC[C@H]4C3)c2c1N` (relative stereo) [Example 28, 3-amino-4-(trans-perhydroisoquinolin-2-yl)thieno[2,3-b]pyridine-2-carboxamide] had a melting point of 285 to 288 °C.

Compound `CCN(CC)c1ccnc2sc(C(N)=O)c(N)c12` [Example 2, 3-amino-4-(diethylamino)thieno[2,3-b]pyridine-2-carboxamide] showed a melting point of 127 to 129 °C.

In turn, `Cc1cc(N(C)C)c2c(N)c(C(N)=O)sc2n1` [Example 3, 3-amino-4-(dimethylamino)-6-methylthieno[2,3-b]pyridine-2-carboxamide] came in with a melting point of 167 to 170 °C.

`CCCNc1ccnc2sc(C(N)=O)c(N)c12` [Example 4, 3-amino-4-(propylamino)thieno[2,3-b]pyridine-2-carboxamide]: the melting point was in the range of 214 to 215 °C.

As to `CC(C)CNc1ccnc2sc(C(N)=O)c(N)c12` [Example 5, 3-amino-4-(isobutylamino)thieno[2,3-b]pyridine-2-carboxamide], the melting point lay in the range of 117 to 119 °C.

`CC(C)(C)CNc1ccnc2sc(C(N)=O)c(N)c12` [Example 6, 3-amino-4-(neopentylamino)thieno[2,3-b]pyridine-2-carboxamide] showed a melting point of 238 to 240 °C.

Take `NC(=O)c1sc2nccc(NCc3ccccc3)c2c1N` [Example 7, 3-amino-4-(benzylamino)thieno[2,3-b]pyridine-2-carboxamide]: the melting point is 260 to 262 °C.

Compound `NC(=O)c1sc2nccc(NCCCc3ccccc3)c2c1N` [Example 9, 3-amino-4-[(3-phenylpropyl)amino]thieno[2,3-b]pyridine-2-carboxamide] registered a melting point of 232 to 234 °C.

Take `NC(=O)c1sc2nccc(NC3CCCCC3)c2c1N` [Example 11, 3-amino-4-(cyclohexylamino)thieno[2,3-b]pyridine-2-carboxamide]: the melting point was 244 to 247 °C.

`NC(=O)c1sc2nccc(NC3CCCCCC3)c2c1N` [Example 12, 3-amino-4-(cycloheptylamino)thieno[2,3-b]pyridine-2-carboxamide] yielded a melting point of 206 to 208 °C.

As for `NC(=O)c1sc2nccc(N3CCCC3)c2c1N` [Example 13, 3-amino-4-pyrrolidin-1-ylthieno[2,3-b]pyridine-2-carboxamide], the melting point is 275 to 283 °C.

As for `CC1CCN(c2ccnc3sc(C(N)=O)c(N)c23)CC1` [Example 15, 3-amino-4-(4-methylpiperidin-1-yl)thieno[2,3-b]pyridine-2-carboxamide], the melting point fell in the range of 252 to 254 °C.

In turn, `NC(=O)c1sc2nccc(N3CCC(Cc4ccccc4)CC3)c2c1N` [Example 18, 3-amino-4-(4-benzylpiperidin-1-yl)thieno[2,3-b]pyridine-2-carboxamide] registered a melting point of 220 to 221 °C.

`NC(=O)c1sc2nccc(N3CCC(O)CC3)c2c1N` [Example 19, 3-amino-4-(4-hydroxypiperidin-1-yl)thieno[2,3-b]pyridine-2-carboxamide] came in with a melting point of 239 to 241 °C.

For the compound `CC(=O)OC1CCN(c2ccnc3sc(C(N)=O)c(N)c23)CC1` [Example 20, 3-amino-4-(4-acetoxypiperidin-1-yl)thieno[2,3-b]pyridine-2-carboxamide], the melting point lay in the range of 231 to 235 °C.

For the compound `NC(=O)c1sc2nccc(N3CC=C(c4ccccc4)CC3)c2c1N` [Example 21, 3-amino-4-(4-phenyl-3,6-dihydropyridin-1(2H)-yl)thieno[2,3-b]pyridine-2-carboxamide], the melting point was 235 °C (dec.).

As for `NC(=O)c1sc2nccc(N3CCOCC3)c2c1N` [Example 22, 3-amino-4-morpholin-4-ylthieno[2,3-b]pyridine-2-carboxamide], the melting point lay within 232 to 234 °C.

Consider `C[C@@H]1CN(c2ccnc3sc(C(N)=O)c(N)c23)C[C@H](C)O1` [Example 23, 3-amino-4-(cis-2,6-dimethylmorpholin-4-yl)thieno[2,3-b]pyridine-2-carboxamide], for which the melting point was in the range of 242 to 244 °C.

In turn, `NC(=O)c1sc2nccc(N3CCCCCC3)c2c1N` [Example 25, 3-amino-4-azepan-1-ylthieno[2,3-b]pyridine-2-carboxamide] yielded a melting point of 219 to 221 °C.

The compound `NC(=O)c1sc2nccc(N3CCCCCCC3)c2c1N` [Example 26, 3-amino-4-azocan-1-ylthieno[2,3-b]pyridine-2-carboxamide] came in with a melting point of 222 to 224 °C.

For the compound `NC(=O)c1sc2nccc(N3CCc4ccccc4C3)c2c1N` [Example 27, 3-amino-4-(3,4-dihydroisoquinoline-2(1H)-yl)thieno[2,3-b]pyridine-2-carboxamide], the melting point lay in the range of 244 to 245 °C.

`NC(=O)c1sc2nccc(N3CCCOCC3)c2c1N` [Example 30, 3-amino-4-(1,4-oxazepan-4-yl)thieno[2,3-b]pyridine-2-carboxamide] came in with a melting point of 175 to 176 °C.

`NC(=O)c1sc2nccc(N3CCC(c4ccccc4)CC3)c2c1N` [Example 31, 3-amino-4-(4-phenylpiperidin-1-yl)thieno[2,3-b]pyridine-2-carboxamide] displayed a melting point of 226 to 233 °C.

Turning to `NC(=O)c1sc2nccc(N3CC[S+]([O-])CC3)c2c1N` [Example 32, 3-amino-4-(1-oxothiomorpholine-4-yl)thieno[2,3-b]pyridine-2-carboxamide], the melting point fell in the range of 165 to 172 °C.

Turning to `NC(=O)c1sc2nccc(N3CCCSCC3)c2c1N` [Example 33, 3-amino-4-(1,4-thiazepan-4-yl)thieno[2,3-b]pyridine-2-carboxamide], the melting point fell in the range of 171 to 174 °C.

The compound `NC(=O)c1sc2nccc(N3CCC[S+]([O-])CC3)c2c1N` (centres unmarked) [Example 34, 3-amino-4-(1-oxo-1,4-thiazepan-4-yl)thieno[2,3-b]pyridine-2-carboxamide] yielded a melting point of 111 to 119 °C.

`NC(=O)c1sc2nccc(N3CCCC(c4ccccc4)C3)c2c1N` (centres unmarked) [Example 35, 3-amino-4-(3-phenylpiperidin-1-yl)thieno[2,3-b]pyridine-2-carboxamide] showed a melting point of 267 to 269 °C.

For the compound `NC(=O)c1sc2nccc(N3CCCC(O)C3)c2c1N` (centres unmarked) [Example 36, 3-amino-4-(3-hydroxypiperidin-1-yl)thieno[2,3-b]pyridine-2-carboxamide], the melting point was 208 to 211 °C.

For the compound `CC(C)(C)OC(=O)N1CCN(c2ccnc3sc(C(N)=O)c(N)c23)CC1` [Example 37, tert-butyl 4-[3-amino-2-(aminocarbonyl)thieno[2,3-b]pyridin-4-yl]piperazine-1-carboxylate], the melting point is 198 to 203 °C.

In turn, `CN1CCN(c2ccnc3sc(C(N)=O)c(N)c23)CC1` [Example 39, 3-amino-4-(4-methylpiperazin-1-yl)thieno[2,3-b]pyridine-2-carboxamide] returned a melting point of 260 to 263 °C.

`CCN1CCN(c2ccnc3sc(C(N)=O)c(N)c23)CC1` [Example 40, 3-amino-4-(4-ethylpiperazin-1-yl)thieno[2,3-b]pyridine-2-carboxamide] gave a melting point of 218 to 219 °C.

`CC(C)N1CCN(c2ccnc3sc(C(N)=O)c(N)c23)CC1` [Example 41, 3-amino-4-(4-isopropylpiperazin-1-yl)thieno[2,3-b]pyridine-2-carboxamide] came in with a melting point of 240 to 243 °C.

For `NC(=O)c1sc2nccc(N3CCN(c4ccccc4)CC3)c2c1N` [Example 42, 3-amino-4-(4-phenylpiperazin-1-yl)thieno[2,3-b]pyridine-2-carboxamide], the melting point was 250 to 252 °C.

`NC(=O)c1sc2nccc(N3CCN(Cc4ccccc4)CC3)c2c1N` [Example 43, 3-amino-4-(4-benzylpiperazin-1-yl)thieno[2,3-b]pyridine-2-carboxamide] registered a melting point of 241 to 242 °C.

Turning to `NC(=O)c1sc2nccc(N3CCN(c4ncccn4)CC3)c2c1N` [Example 44, 3-amino-4-(4-pyrimidin-2-ylpiperazin-1-yl)thieno[2,3-b]pyridine-2-carboxamide], the melting point is 280 °C (dec.).

With `NC(=O)c1sc2nccc(N3CCN(c4ccccn4)CC3)c2c1N` [Example 45, 3-amino-4-(4-pyridin-2-ylpiperazin-1-yl)thieno[2,3-b]pyridine-2-carboxamide], the melting point lay in the range of 266 to 270 °C.

For `Cc1ccc(N2CCN(c3ccnc4sc(C(N)=O)c(N)c34)CC2)cc1` [Example 46, 3-amino-4-[4-(4-methylphenyl)piperazin-1-yl]thieno[2,3-b]pyridine-2-carboxamide], the melting point is 270 °C (dec.).

Turning to `NC(=O)c1sc2nccc(N3CCN(c4ccc(F)cc4)CC3)c2c1N` [Example 47, 3-amino-4-[4-(4-fluorophenyl)piperazin-1-yl]thieno[2,3-b]pyridine-2-carboxamide], the melting point is 275 °C (dec.).

Consider `NC(=O)c1sc2nccc(N3CCN(C(c4ccccc4)c4ccccc4)CC3)c2c1N` [Example 48, 3-amino-4-(4-benzhydrylpiperazin-1-yl)thieno[2,3-b]pyridine-2-carboxamide], for which the melting point lay in the range of 225 to 233 °C.

Turning to `COc1ccc(N2CCN(c3ccnc4sc(C(N)=O)c(N)c34)CC2)cc1` [Example 49, 3-amino-4-[4-(4-methoxyphenyl)piperazin-1-yl]thieno[2,3-b]pyridine-2-carboxamide], the melting point is 275 °C (dec.).

Consider `NC(=O)c1sc2nccc(N3CCN(C(=O)c4ccccc4)CC3)c2c1N` [Example 51, 3-amino-4-(4-benzoylpiperazin-1-yl)thieno[2,3-b]pyridine-2-carboxamide], for which the melting point was over 300 °C.

On to `NC(=O)c1sc2nccc(N3CCN(c4ccc(Cl)cc4)CC3)c2c1N` [Example 52, 3-amino-4-[4-(4-chlorophenyl)piperazin-1-yl]thieno[2,3-b]pyridine-2-carboxamide], for which the melting point was 297 °C (dec.).

The term melting point denotes the temperature, or range, at which the solid turns liquid.
